# Reference: PubChem BioAssay (NCI)
#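 A five-concentration, 48-hour dose response in 96-well plates underlies each endpoint, interpolated linearly between surrounding concentrations. The concentration for 50% growth inhibition is given as GI50. The concentration for full growth arrest is given as TGI.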
# Tests used:
# Experiment in all cases: NCI anticancer screen, dose series, 48 h
# 786-0 renal = tested on: 786-0 renal
# A498 renal = tested on: A498 renal
# A549 NSCLC = tested on: A549 NSCLC
# ACHN renal = tested on: ACHN renal
# BT-549 breast = tested on: BT-549 breast
# CAKI-1 renal = tested on: CAKI-1 renal
# CCRF-CEM leukemia = tested on: CCRF-CEM leukemia
# COLO 205 colon = tested on: COLO 205 colon
# DU-145 prostate = tested on: DU-145 prostate
# EKVX NSCLC = tested on: EKVX NSCLC
# HCC-2998 colon = tested on: HCC-2998 colon
# HCT-116 colon = tested on: HCT-116 colon
# HCT-15 colon = tested on: HCT-15 colon
# HL-60(TB) leukemia = tested on: HL-60(TB) leukemia
# HOP-62 NSCLC = tested on: HOP-62 NSCLC
# HOP-92 NSCLC = tested on: HOP-92 NSCLC
# HS 578T breast = tested on: HS 578T breast
# HT29 colon = tested on: HT29 colon
# IGROV1 ovarian = tested on: IGROV1 ovarian
# K-562 leukemia = tested on: K-562 leukemia
# KM12 colon = tested on: KM12 colon
# LOX IMVI melanoma = tested on: LOX IMVI melanoma
# M14 melanoma = tested on: M14 melanoma
# MALME-3M melanoma = tested on: MALME-3M melanoma
# MCF7 breast = tested on: MCF7 breast
# MDA-MB-231 breast = tested on: MDA-MB-231 breast
# MDA-MB-435 = tested on: MDA-MB-435
# MDA-MB-468 breast = tested on: MDA-MB-468 breast
# MOLT-4 leukemia = tested on: MOLT-4 leukemia
# NCI-H226 lung = tested on: NCI-H226 lung
# NCI-H23 lung = tested on: NCI-H23 lung
# NCI-H460 lung = tested on: NCI-H460 lung
# NCI-H522 lung = tested on: NCI-H522 lung
# OVCAR-3 ovarian = tested on: OVCAR-3 ovarian
# OVCAR-4 ovarian = tested on: OVCAR-4 ovarian
# OVCAR-5 ovarian = tested on: OVCAR-5 ovarian
# OVCAR-8 ovarian = tested on: OVCAR-8 ovarian
# PC-3 prostate = tested on: PC-3 prostate
# RPMI-8226 leukemia = tested on: RPMI-8226 leukemia
# RXF 393 renal = tested on: RXF 393 renal
# SF-268 CNS = tested on: SF-268 CNS
# SF-295 CNS = tested on: SF-295 CNS
# SF-539 CNS = tested on: SF-539 CNS
# SK-MEL-2 melanoma = tested on: SK-MEL-2 melanoma
# SK-MEL-28 melanoma = tested on: SK-MEL-28 melanoma
# SK-MEL-5 melanoma = tested on: SK-MEL-5 melanoma
# SK-OV-3 ovarian = tested on: SK-OV-3 ovarian
# SN12C renal = tested on: SN12C renal
# SNB-19 CNS = tested on: SNB-19 CNS
# SNB-75 CNS = tested on: SNB-75 CNS
# SR leukemia = tested on: SR leukemia
# SW-620 colon = tested on: SW-620 colon
# T-47D breast = tested on: T-47D breast
# TK-10 renal = tested on: TK-10 renal
# U251 CNS = tested on: U251 CNS
# UACC-257 melanoma = tested on: UACC-257 melanoma
# UACC-62 melanoma = tested on: UACC-62 melanoma
# UO-31 renal = tested on: UO-31 renal
structure (smiles),measurement,setting,value
COc1cc(CNC(=O)/C=C/c2ccc3c(c2)OCO3)ccc1OCc1cn(-c2cccc(C(F)(F)F)c2)nn1,GI50,786-0 renal,6.2 µM
same,TGI,786-0 renal,19.2 µM
same,GI50,A498 renal,5.32 µM
same,TGI,A498 renal,19.1 µM
same,GI50,A549 NSCLC,3.71 µM
same,TGI,A549 NSCLC,15.9 µM
same,GI50,ACHN renal,5.24 µM
same,TGI,ACHN renal,18.5 µM
same,GI50,BT-549 breast,4.83 µM
same,TGI,BT-549 breast,19.3 µM
same,GI50,CAKI-1 renal,5.39 µM
same,TGI,CAKI-1 renal,18.5 µM
same,GI50,CCRF-CEM leukemia,32.1 µM
same,TGI,CCRF-CEM leukemia,> 100 µM
same,GI50,COLO 205 colon,10.4 µM
same,TGI,COLO 205 colon,25 µM
same,GI50,DU-145 prostate,10.7 µM
same,TGI,DU-145 prostate,28.4 µM
same,GI50,EKVX NSCLC,13.1 µM
same,TGI,EKVX NSCLC,29.5 µM
same,GI50,HCC-2998 colon,10.1 µM
same,TGI,HCC-2998 colon,23.7 µM
same,GI50,HCT-116 colon,3.83 µM
same,TGI,HCT-116 colon,14.9 µM
same,GI50,HCT-15 colon,5.19 µM
same,TGI,HCT-15 colon,26.6 µM
same,GI50,HL-60(TB) leukemia,23.6 µM
same,TGI,HL-60(TB) leukemia,> 100 µM
same,GI50,HOP-62 NSCLC,7.29 µM
same,TGI,HOP-62 NSCLC,26 µM
same,GI50,HOP-92 NSCLC,2.61 µM
same,TGI,HOP-92 NSCLC,8.28 µM
same,GI50,HS 578T breast,4.39 µM
same,TGI,HS 578T breast,24.8 µM
same,GI50,HT29 colon,14.9 µM
same,TGI,HT29 colon,36.1 µM
same,GI50,IGROV1 ovarian,15.3 µM
same,TGI,IGROV1 ovarian,32.7 µM
same,GI50,K-562 leukemia,17.5 µM
same,TGI,K-562 leukemia,> 100 µM
same,GI50,KM12 colon,15.5 µM
same,TGI,KM12 colon,43 µM
same,GI50,LOX IMVI melanoma,4.75 µM
same,TGI,LOX IMVI melanoma,19 µM
same,GI50,M14 melanoma,10.4 µM
same,TGI,M14 melanoma,23.3 µM
same,GI50,MALME-3M melanoma,2.44 µM
same,TGI,MALME-3M melanoma,9.61 µM
same,GI50,MCF7 breast,4.23 µM
same,TGI,MCF7 breast,22 µM
same,GI50,MDA-MB-231 breast,4.58 µM
same,TGI,MDA-MB-231 breast,17.1 µM
same,GI50,MDA-MB-435,8.25 µM
same,TGI,MDA-MB-435,23.2 µM
same,GI50,MDA-MB-468 breast,10 µM
same,TGI,MDA-MB-468 breast,22.8 µM
same,GI50,MOLT-4 leukemia,10.1 µM
same,TGI,MOLT-4 leukemia,> 100 µM
same,GI50,NCI-H226 lung,3.38 µM
same,TGI,NCI-H226 lung,14.7 µM
same,GI50,NCI-H23 lung,10.5 µM
same,TGI,NCI-H23 lung,23.9 µM
same,GI50,NCI-H460 lung,3.28 µM
same,TGI,NCI-H460 lung,11.6 µM
same,GI50,NCI-H522 lung,9.78 µM
same,TGI,NCI-H522 lung,23.7 µM
same,GI50,OVCAR-3 ovarian,3.31 µM
same,TGI,OVCAR-3 ovarian,11.6 µM
same,GI50,OVCAR-4 ovarian,2.9 µM
same,TGI,OVCAR-4 ovarian,10.3 µM
same,GI50,OVCAR-5 ovarian,14.5 µM
same,TGI,OVCAR-5 ovarian,31.8 µM
same,GI50,OVCAR-8 ovarian,3.91 µM
same,TGI,OVCAR-8 ovarian,15.4 µM
same,GI50,PC-3 prostate,13.4 µM
same,TGI,PC-3 prostate,29.3 µM
same,GI50,RPMI-8226 leukemia,18.5 µM
same,TGI,RPMI-8226 leukemia,> 100 µM
same,GI50,RXF 393 renal,2.93 µM
same,TGI,RXF 393 renal,9.87 µM
same,GI50,SF-268 CNS,12 µM
same,TGI,SF-268 CNS,34.8 µM
same,GI50,SF-295 CNS,4.84 µM
same,TGI,SF-295 CNS,17.8 µM
same,GI50,SF-539 CNS,3.54 µM
same,TGI,SF-539 CNS,12.7 µM
same,GI50,SK-MEL-2 melanoma,10.1 µM
same,TGI,SK-MEL-2 melanoma,22.8 µM
same,GI50,SK-MEL-28 melanoma,8.84 µM
same,TGI,SK-MEL-28 melanoma,21.7 µM
same,GI50,SK-MEL-5 melanoma,4.68 µM
same,TGI,SK-MEL-5 melanoma,16.4 µM
same,GI50,SK-OV-3 ovarian,16.3 µM
same,TGI,SK-OV-3 ovarian,36.5 µM
same,GI50,SN12C renal,9.04 µM
same,TGI,SN12C renal,27.6 µM
same,GI50,SNB-19 CNS,13.2 µM
same,TGI,SNB-19 CNS,27.9 µM
same,GI50,SNB-75 CNS,1.62 µM
same,TGI,SNB-75 CNS,5.37 µM
same,GI50,SR leukemia,21.3 µM
same,TGI,SR leukemia,> 100 µM
same,GI50,SW-620 colon,5.86 µM
same,TGI,SW-620 colon,22.5 µM
same,GI50,T-47D breast,3.27 µM
same,TGI,T-47D breast,26.6 µM
same,GI50,TK-10 renal,13.5 µM
same,TGI,TK-10 renal,32.2 µM
same,GI50,U251 CNS,4.5 µM
same,TGI,U251 CNS,17.6 µM
same,GI50,UACC-257 melanoma,10.8 µM
same,TGI,UACC-257 melanoma,25.4 µM
same,GI50,UACC-62 melanoma,11 µM
same,TGI,UACC-62 melanoma,23.4 µM
same,GI50,UO-31 renal,2.6 µM
same,TGI,UO-31 renal,10.1 µM
